Key:
Assay in all cases: relative viability (nuclei count vs DMSO), 5 days (fraction); higher = more cells survive
RO-3306 + Alpelisib = compound: C1=CC2=C(C=CC(=C2)C=C3C(=O)NC(=NCC4=CC=CS4)S3)N=C1 [RO-3306] + Cc1nc(NC(=O)N2CCC[C@H]2C(N)=O)sc1-c1ccnc(C(C)(C)C(F)(F)F)c1 [Alpelisib] (partner 2 µM)
How it was run: (§1)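 Relative viability is defined as nuclei in treated wells over nuclei in vehicle wells. Duplicate plates were run and medians reported. Lung cancer cell lines in 1536-well plates were dosed by pin tool one day after seeding, with one drug or with a fixed anchor-drug dose plus five library-drug doses (not always all listed) in √10 steps, and nuclei were counted after 5 days.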

RO-3306 + Phenformin = compound: C1=CC2=C(C=CC(=C2)C=C3C(=O)NC(=NCC4=CC=CS4)S3)N=C1 [RO-3306] + N=C(N)NC(=N)NCCc1ccccc1 [Phenformin] (partner 250 µM)
How it was run: as §1

[1] = compound: O=S(=O)(c1ccccc1)N(CC(F)(F)F)c1ccc(C(O)(C(F)(F)F)C(F)(F)F)cc1 + CC(=O)Nc1cccc(-n2c(=O)n(C3CC3)c(=O)c3c(Nc4ccc(I)cc4F)n(C)c(=O)c(C)c32)c1 [Trametinib] (partner 0.02 µM)
How it was run: as §1

[2] = compound: O=S(=O)(c1ccccc1)N(CC(F)(F)F)c1ccc(C(O)(C(F)(F)F)C(F)(F)F)cc1 + Cc1cc(Nc2cc(N3CCN(C)CC3)nc(Sc3ccc(NC(=O)C4CC4)cc3)n2)n[nH]1 [Tozasertib] (partner 0.1 µM)
How it was run: as §1

[3] = compound: O=S(=O)(c1ccccc1)N(CC(F)(F)F)c1ccc(C(O)(C(F)(F)F)C(F)(F)F)cc1 + Nc1nc2[nH]cc(CCc3ccc(C(=O)N[C@@H](CCC(=O)O)C(=O)O)cc3)c2c(=O)[nH]1 [Pemetrexed] (partner 0.2 µM)
How it was run: as §1

Cell Line	relative viability (RO-3306 + Alpelisib; first compound 0.01 µM)	relative viability (RO-3306 + Alpelisib; first compound 0.03162 µM)	relative viability (RO-3306 + Alpelisib; first compound 0.1 µM)	relative viability (RO-3306 + Alpelisib; first compound 0.3162 µM)	relative viability (RO-3306 + Alpelisib; first compound 1 µM)	relative viability (RO-3306 + Phenformin; first compound 0.01 µM)	relative viability (RO-3306 + Phenformin; first compound 0.03162 µM)	relative viability (RO-3306 + Phenformin; first compound 0.1 µM)	relative viability (RO-3306 + Phenformin; first compound 0.3162 µM)	relative viability (RO-3306 + Phenformin; first compound 1 µM)	relative viability ([1]; first compound 0.8 µM)	relative viability ([1]; first compound 2.53 µM)	relative viability ([1]; first compound 8 µM)	relative viability ([2]; first compound 0.8 µM)	relative viability ([2]; first compound 2.53 µM)	relative viability ([2]; first compound 8 µM)	relative viability ([3]; first compound 0.8 µM)	relative viability ([3]; first compound 2.53 µM)	relative viability ([3]; first compound 8 µM)
NCI-H3122	0.635	0.738	0.832	0.762	0.788	0.419	0.612	0.397	0.391	0.665	0.166	0.143	0.221	0.419	0.424	0.489	0.209	0.19	0.201
PC-3 [JPC-3]	1.1	1	1.02	0.98	0.98	0.481	0.517	0.467	0.473	0.433	–	0.678	0.678	0.819	0.838	0.767	–	1.07	0.949
PC-14	0.981	–	0.939	0.953	0.996	0.616	0.504	0.503	0.595	0.499	0.705	0.554	0.477	0.559	0.445	0.34	0.135	0.116	0.148
RERF-LC-KJ	1.01	0.708	0.706	0.836	0.768	0.428	0.445	0.416	0.445	0.407	0.812	0.721	0.663	0.5	0.445	0.523	0.477	0.453	0.461
SK-LU-1	1.03	1.07	0.951	1.02	0.973	0.461	0.426	0.503	0.484	0.453	0.466	0.537	0.491	0.285	0.328	0.301	1.05	0.976	1.01
SK-MES-1	0.9	0.553	0.831	0.983	0.922	0.73	0.605	0.711	0.621	0.625	0.546	0.573	0.59	1.11	1.05	0.962	1.12	1	0.824
SW 1573	0.701	–	0.848	0.832	0.905	0.405	–	0.363	0.341	0.351	0.638	0.537	0.472	0.182	0.17	0.215	0.904	0.76	0.877
